{
  "source": "patent US4473572A",
  "about": "“α2 -Adrenoceptor antagonistic benzoquinolizines” (John Wyeth & Brother, Limited, priority 1982, dated 1984)",
  "key": {"α2-adrenoceptor": {"target": "T1, α2-adrenoceptor (Rattus norvegicus, UniProt P22909)", "T1 construct": "from tissue; host or cells: desheathed vas deferens of sexually mature rats", "T1 sequence (P22909 1-465)": "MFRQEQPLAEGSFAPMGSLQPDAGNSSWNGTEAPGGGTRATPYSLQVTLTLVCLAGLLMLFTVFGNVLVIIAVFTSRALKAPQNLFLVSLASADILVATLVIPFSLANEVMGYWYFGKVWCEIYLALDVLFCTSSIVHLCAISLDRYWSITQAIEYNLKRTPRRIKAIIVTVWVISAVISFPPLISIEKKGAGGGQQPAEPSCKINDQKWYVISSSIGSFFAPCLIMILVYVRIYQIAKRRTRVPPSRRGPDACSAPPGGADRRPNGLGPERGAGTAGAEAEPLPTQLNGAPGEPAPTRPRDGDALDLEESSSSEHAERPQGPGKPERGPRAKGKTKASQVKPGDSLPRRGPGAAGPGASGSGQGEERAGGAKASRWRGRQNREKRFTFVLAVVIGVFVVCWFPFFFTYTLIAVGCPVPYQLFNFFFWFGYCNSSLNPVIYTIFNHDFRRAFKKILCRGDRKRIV", "experiment": "α2-adrenoceptor antagonistic activity on the rat field stimulated vas deferens preparation (against clonidine)", "settings": "for α2/α1 selectivity: antilog of (α2 pA2 - α1 pA2); for Kb: rat field stimulated vas deferens, clonidine as agonist, 37°, 90 min after introduction of antagonist, Arunlakshana & Schild, read-out: pA2 (α2) (converted)", "experimental": "The compounds of the invention were tested for their α2 -adrenoceptor antagonistic activity on the rat field stimulated vas deferens preparation using a modification of the method of Drew, Eur.J.Pharmac., 1977, 42, 123-130. The procedure is described below.\nDesheathed vas deferentia from sexually mature rats were suspended in a 6 ml organ bath in Krebs solution at 37° and bubbled with 5% CO2 in oxygen. Platinum ring electrodes were positioned above and below the tissue for field stimulation, the stimulus parameters being 0.1 Hz 1 ms pulse width at supramaximal voltage. Twitch responses were recorded isotonically with a 0.5 g loading. Clonidine hydrochloride was used as the α-adrenoceptor agonist and cumulative concentration-response curves were constructed for the inhibition of twitch obtained with clonidine in the range 0.125 to 4 ng ml^-1. After washing out clonidine, the twitch response quickly recovered and an antagonist was then introduced into the Krebs reservoir. Clonidine concentration-response curves were repeated 90 min after introduction of the antagonist. The concentration of clonidine producing 50% inhibition of twitch before and after introduction of antagonist were obtained and the dose-ratio for clonidine was calculated. Various concentrations of the antagonists were used.\nChemother., 1959, 14, 48-58 and the values of pA2 and slope were calculated."}, "α1-adrenoceptor": {"target": "T2, α1-adrenoceptor (Rattus norvegicus, UniProt P43140)", "T2 construct": "isolated anococcygeus muscle of the rat; from tissue; host or cells: anococcygeus muscle of male rats (250-360 g)", "T2 sequence (P43140 1-466)": "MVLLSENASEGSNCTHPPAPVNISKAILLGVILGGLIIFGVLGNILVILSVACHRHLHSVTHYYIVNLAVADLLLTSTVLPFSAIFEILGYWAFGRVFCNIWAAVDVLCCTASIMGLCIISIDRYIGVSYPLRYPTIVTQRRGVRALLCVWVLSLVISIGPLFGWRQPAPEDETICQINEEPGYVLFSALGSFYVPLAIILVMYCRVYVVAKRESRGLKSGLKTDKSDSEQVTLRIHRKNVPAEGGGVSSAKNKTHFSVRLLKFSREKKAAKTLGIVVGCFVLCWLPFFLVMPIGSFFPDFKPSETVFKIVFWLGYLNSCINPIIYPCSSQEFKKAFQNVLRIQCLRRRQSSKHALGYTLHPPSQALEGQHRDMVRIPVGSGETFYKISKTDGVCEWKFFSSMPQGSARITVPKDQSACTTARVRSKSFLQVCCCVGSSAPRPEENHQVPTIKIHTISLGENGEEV", "experiment": "α1 antagonistic activity on the isolated anococcygeus muscle of the rat (against phenylephrine or methoxamine)", "settings": "antagonist of phenylephrine or methoxamine, 37°, 10^-6 to 10^-4 M test drug, 30 min equilibration, read-out: pA2 (α1) (converted)", "from_the_text": "The α1 antagonistic activity can be evaluated by a number of different methods. One method involves assessing the activity on the isolated anococcygeus muscle of the rat. The method is based on that of Gillespie, Br.J.Pharmac., 1972, 45, 404-416. In the procedure male rats (250-360 g) are killed by a blow on the head and bled. The two anococcygeus muscles are removed from their position in the midline of the pelvic cavity, where they arise from the upper coccygeal vertebrae. The muscles are suspended in 5 ml organ baths in Krebs solution containing 10^-4 M ascorbic acid, to prevent drug oxidation. The tissues are gassed with a 95% oxygen, 5% CO2 mixture and maintained at 37°. Longitudinal muscle contractions are recorded using isotonic transducers. Cumulative dose response curves are then obtained to phenylephrine or in some cases methoxamine, both agents being […] alpha adrenoceptor agonists. The concentration range of phenylephrine or methoxamine used is 0.02 to 0.8 μg.ml^-1. The agonist is then washed from the bath and the test drug added to the bathing medium at a concentration of 10^-6 M. After 30 min. equilibration with the test drug a further agonist dose response curve is obtained. The washing, equilibration and agonists dosing procedures are then repeated using 10^-5 M and 10^-4 M solutions of the test drug. Estimates of the pA2 value for the test drug as an antagonist of phenylephrine or methoxamine were made from the agonist dose-ratios using the method of Arunlakshana & Schild, Br.J.Pharmac.Chemother., 1959, 14, 48-58."}},
  "data": [
    {"smiles": "CN([C@H]1CCN2CCc3ccccc3[C@H]2C1)S(=O)(=O)C(F)(F)F", "note": "(relative stereo) [Example 1, N-Methyl-N-(1,3,4,6,7,11bα-hexahydro-2H-benzo[a]quinolizin-2β-yl)-trifluoromethanesulphonamide]", "values": [
      {"measurement": "α2/α1 selectivity", "setting": "α2-adrenoceptor", "result": 46},
      {"measurement": "Kb", "setting": "α2-adrenoceptor", "result": 70.8, "unit": "nM"},
      {"measurement": "Kb", "setting": "α1-adrenoceptor", "result": 3240, "unit": "nM"}
    ]},
    {"smiles": "CN([C@H]1CCN2CCc3ccccc3[C@H]2C1)S(=O)(=O)CC(F)(F)F", "note": "(relative stereo) [Example 2, N-Methyl-N-(1,3,4,6,7,11bα-hexahydro-2H-benzo[a]quinolizin-2β-yl)-2',2',2'-trifluoroethanesulphonamide]", "values": [
      {"measurement": "α2/α1 selectivity", "setting": "α2-adrenoceptor", "result": 43},
      {"measurement": "Kb", "setting": "α2-adrenoceptor", "result": 27.5, "unit": "nM"},
      {"measurement": "Kb", "setting": "α1-adrenoceptor", "result": 1170, "unit": "nM"}
    ]},
    {"smiles": "CN([C@H]1CCN2CCc3ccccc3[C@H]2C1)S(=O)(=O)CCl", "note": "(relative stereo) [Example 3, N-Methyl-N-(1,3,4,6,7,11bα-hexahydro-2H-benzo[a]quinolizin-2β-yl)chloromethanesulphonamide]", "values": [
      {"measurement": "α2/α1 selectivity", "setting": "α2-adrenoceptor", "result": 45},
      {"measurement": "Kb", "setting": "α2-adrenoceptor", "result": 8.91, "unit": "nM"},
      {"measurement": "Kb", "setting": "α1-adrenoceptor", "result": 245, "unit": "nM"}
    ]},
    {"smiles": "CN([C@H]1CCN2CCc3ccccc3[C@H]2C1)S(=O)(=O)CCCCl", "note": "(relative stereo) [Example 4, N-Methyl-N-(1,3,4,6,8,11bα-hexahydro-2H-benzo[a]quinolizin-2β-yl)-3'-chloropropanesulphonamide]", "values": [
      {"measurement": "α2/α1 selectivity", "setting": "α2-adrenoceptor", "result": 27.5},
      {"measurement": "Kb", "setting": "α2-adrenoceptor", "result": 8.32, "unit": "nM"},
      {"measurement": "Kb", "setting": "α1-adrenoceptor", "result": 288, "unit": "nM"}
    ]}
  ]
}
